Results: patent US9243020B2, “Selective glycosidase inhibitors and uses thereof” (priority 2010, dated 2016)

Experiments:
human O-GlcNAcase = human O-GlcNAcase (Homo sapiens (Human), UniProt O60502); experiment: Assay for determination of Ki values for inhibition of O-GlcNAcase activity (fluorescence-based); assay type: biochemical; conditions: purified human O-GlcNAcase 0.7 nM, 2 mM 4-methylumbelliferyl N-acetyl-β-D-glucosaminide, pH 7.0, Cheng-Prusoff; read-out: Fluorescence-based hOGA Ki
Protocol: Experimental procedure for kinetic analyses: Enzymatic reactions were carried out in a reaction containing 50 mM NaH2PO4, 100 mM NaCl and 0.1% BSA (pH 7.0) using 2 mM 4-Methylumbelliferyl N-acetyl-β-D-glucosaminide dihydrate (Sigma M2133) dissolved in ddH2O, as a substrate. The amount of purified human O-GlcNAcase enzyme used in the reaction was 0.7 nM. Test compound of varying concentrations was added to the enzyme prior to initiation of the reaction. The reaction was performed at room temperature in a 96-well plate and was initiated with the addition of substrate. […] The slope of product production was determined for each concentration of compound tested and plotted, using standard curve fitting algorithms for sigmoidal dose response curves. The values for a four parameter logistic curve fit of the data were determined.

[1] = tested on: O-GlcNAcylated protein in rat PC-12 cells; experiment: Cell-based ELISA for cellular activity of O-GlcNAcase inhibitors (RL-2 antibody); conditions: 24 h treatment, increase in O-GlcNAcylated protein detected with RL-2 antibody
Excerpt: Inhibition of O-GlcNAcase, which removes O-GlcNAc from cellular proteins, results in an increase in the level of O-GlcNAcylated protein in cells. An increase in O-GlcNAcylated protein can be measured by an antibody, such as RL-2, that binds to O-GlcNAcylated protein. The amount of O-GleNAcylated protein:RL2 antibody interaction can be measured by enzyme linked immunosorbant assay (ELISA) procedures.
A variety of tissue culture cell lines, expressing endogenous levels of O-GlcNAcase, can be utilized; examples include rat PC-12, and human U-87, or SK-N-SH cells. In this assay,rat PC-12 cells were plated in 96-well plates with approximately 10,000 cells/well. Compounds to be tested were dissolved in DMSO, either 2 or 10 mM stock solution, and then diluted with DMSO and water in a two-step process using a Tecan workstation. […] To prepare a cell lysate, the media from compound treated cells was removed, the cells were washed once with phosphate buffered saline (PBS) and then lysed for 5 minutes at room temperature in 50 μL of Phosphosafe reagent (Novagen Inc, Madison, Wis.) with protease inhibitors and PMSF. The cell lysate was collected and transferred to a new plate, which was then either coated to assay plates directly or frozen −80° C. until used in the ELISA procedure. If desired, the total protein concentration of samples was determined using 20 μL of the sample using the BCA method.
The ELISA portion of the assay was performed in a black Maxisorp 96-well plate that was coated overnight at 4° C. with 100 μL/well of the cell lysate (1:10 dilution of the lysate with PBS containing protease inhibitors, phosphatase inhibitors, and PMSF). The following day the wells were washed 3 times with 300 μL/well of Wash buffer (Tris-buffered saline with 0.1% Tween 20). The wells were blocked with 100 μl/well Blocking buffer (Tris buffered saline w/0.05% Tween 20 and 2.5% Bovine serum albumin). Each well was then washed two times with 300 μL/well of wash buffer. […] The plate was sealed and incubated at 37° C. for 2 h with gentle shaking. The wells were then washed 3-times with 300 μL/well wash buffer. […] The plate was incubated for 60 min at 37° C. with gentle shaking. Each well was then washed 3-times with 300 μL/well wash buffer. The detection reagent was added, 100 μL/well of Amplex Ultra RED reagent (prepared by adding 30 μL of 10 mM Amplex Ultra Red stock solution to 10 mL PBS with 18 μL 3% hydrogen peroxide, H2O2). The detection reaction was incubated for 15 minutes at room temperature and then read with excitation at 530 nm and emission at 590 nm.
The amount of O-GlcNAcylated protein, as detected by the ELISA assay, was plotted for each concentration of test compound using standard curve fitting algorithms for sigmoidal dose response curves. The values for a four parameter logistic curve fit of the data were determined, with the inflection point of the curve being the potency value for the test compound.

[2] = Assay for determination of apparent permeability (Papp), bi-directional transport; assay type: in vitro ADME; conditions: pig, LLC-PK1; 1 μM test compound, t=3 h, average of A to B and B to A; read-out: Papp LLC-PK-1 cells
Protocol: Bi-directional transport was evaluated in LLC-PK1 cells in order to determine apparent permeability (Papp). LLC-PK1 cells can form a tight monolayer and therefore can be used to assess vectorial transport of compounds from basolateral to apical (B→A) and from apical to basolateral (A→B).
To determine Papp, LLC-PK1 cells were cultured in 96-well transwell culture plates (Millipore). Solutions containing the test compounds (1 μM) were prepared in Hank's Balanced Salt Solution with 10 mM HEPES. Substrate solution (150 μL) was added to either the apical (A) or the basolateral (B) compartment of the culture plate, and buffer (150 μL) was added to the compartment opposite to that containing the compound. At t=3 h, 50 μL samples were removed from both sides of monolayers dosed with test compound and placed in 96 well plates, scintillant (200 μL) or internal standard (100 μL labetolol 104) was added to the samples and concentration was determined by liquid scintillation counting in a MicroBeta Wallac Trilux scintillation counter (Perkin Elmer Life Sciences, Boston, Mass.) or by LCMS/MS (Applied Biosystems SCIEX API 5000 triple quadruple mass spectrometer). [^3H]Verapamil (1 μM) was used as the positive control. The experiment was performed in triplicate.
The apparent permeability, Papp, was calculated by the following formula for samples taken at t=3 h:
[formula] Where: Volume of Receptor Chamber was 0.15 mL; Area of membrane was 0.11 cm^2; the Initial Concentration is the sum of the concentration measured in the donor plus concentration measured in receiver compartments at t=3 h; Δ in Concentration is concentration in the receiver compartment at 3 h; and Δ in Time is the incubation time (3×60×60=10800 s). Papp was expressed as 10^−6 cm/s. The Papp (LLC-PK1 cells) are the average of the Papp for transport from A to B and Papp for transport from B to A at t=3 h: […]

Chain of human O-GlcNAcase (O60502 whole entry): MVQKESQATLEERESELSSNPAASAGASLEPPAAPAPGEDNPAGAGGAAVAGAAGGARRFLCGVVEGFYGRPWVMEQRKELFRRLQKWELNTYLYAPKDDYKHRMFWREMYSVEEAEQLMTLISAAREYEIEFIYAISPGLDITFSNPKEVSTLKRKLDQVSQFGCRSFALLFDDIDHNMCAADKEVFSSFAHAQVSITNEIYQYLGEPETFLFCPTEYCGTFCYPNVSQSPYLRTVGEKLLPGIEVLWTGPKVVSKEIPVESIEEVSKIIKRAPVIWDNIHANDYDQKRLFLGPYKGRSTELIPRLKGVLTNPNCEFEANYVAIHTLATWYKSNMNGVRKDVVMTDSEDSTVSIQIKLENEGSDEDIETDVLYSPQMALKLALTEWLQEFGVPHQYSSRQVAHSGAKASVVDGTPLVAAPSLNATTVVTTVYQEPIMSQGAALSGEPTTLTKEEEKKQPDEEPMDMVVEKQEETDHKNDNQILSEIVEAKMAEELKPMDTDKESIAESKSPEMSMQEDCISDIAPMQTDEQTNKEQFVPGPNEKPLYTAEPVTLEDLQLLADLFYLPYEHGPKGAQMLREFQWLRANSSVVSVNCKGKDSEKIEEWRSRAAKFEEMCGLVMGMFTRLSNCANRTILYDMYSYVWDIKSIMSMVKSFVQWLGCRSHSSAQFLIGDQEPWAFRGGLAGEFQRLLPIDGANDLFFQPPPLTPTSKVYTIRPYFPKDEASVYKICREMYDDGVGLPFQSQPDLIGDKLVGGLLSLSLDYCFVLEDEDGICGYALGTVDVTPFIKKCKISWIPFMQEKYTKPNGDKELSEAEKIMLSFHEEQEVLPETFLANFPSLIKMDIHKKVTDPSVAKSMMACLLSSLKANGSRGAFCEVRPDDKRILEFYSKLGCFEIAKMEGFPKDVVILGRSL

Structure (SMILES) | Ki (human O-GlcNAcase) | EC50 [1] | Papp at 3 h, 1 μM [2]
CCNC1=N[C@@H]2[C@@H](O)[C@@H](O)[C@@H](C(F)F)O[C@@H]2S1 [Example 29, (3aR,5S,6R,7R,7aR)-5-(difluoromethyl)-2-(ethylamino)-5,6,7,7a-tetrahydro-3aH-pyrano[3,2-d]thiazole-6,7-diol] | 164 nM | – | –
CNC1=N[C@@H]2[C@@H](F)[C@H](O)[C@@H](CO)O[C@@H]2S1 [Example 9, (3aR,5R,6R,7R,7aR)-7-fluoro-5-(hydroxymethyl)-2-(methylamino)-5,6,7,7a-tetrahydro-3aH-pyrano[3,2-d]thiazol-6-ol] | 1.3 nM | 307 nM | –
CN(C)C1=N[C@@H]2[C@@H](O)[C@H](O)[C@@H](CO)O[C@@H]2S1 [(3aR,5R,6S,7R,7aR)-2-(dimethylamino)-5-(hydroxymethyl)-5,6,7,7a-tetrahydro-3aH-pyrano[3,2-d]thiazole-6,7-diol, reference compound] | 0.3 nM | 10 nM | < 1 ×10⁻⁶ cm/s
CNC1=N[C@@H]2[C@H](F)[C@H](O)[C@@H](C(F)F)O[C@@H]2S1 [Example 33, (3aR,5S,6R,7S,7aR)-5-(difluoromethyl)-7-fluoro-2-(methylamino)-5,6,7,7a-tetrahydro-3aH-pyrano[3,2-d]thiazol-6-ol] | 13 nM | – | 20.1 ×10⁻⁶ cm/s
CNC1=N[C@@H]2[C@@H](O)[C@H](O)[C@@H](CF)O[C@@H]2S1 [Example 17, (3aR,5S,6S,7R,7aR)-5-(fluoromethyl)-2-(methylamino)-5,6,7,7a-tetrahydro-3aH-pyrano[3,2-d]thiazole-6,7-diol] | 0.5 nM | 34 nM | 7.1 ×10⁻⁶ cm/s
CNC1=N[C@@H]2C[C@H](O)[C@@H](C(F)F)O[C@@H]2S1 [Example 27, (3aR,5S,6S,7aR)-5-(difluoromethyl)-2-(methylamino)-5,6,7,7a-tetrahydro-3aH-pyrano[3,2-d]thiazol-6-ol] | 28 nM | – | 24 ×10⁻⁶ cm/s
CN(C)C1=N[C@@H]2[C@@H](O)[C@H](O)[C@@H](C(F)F)O[C@@H]2S1 [Example 20, (3aR,5S,6S,7R,7aR)-5-(difluoromethyl)-2-(dimethylamino)-5,6,7,7a-tetrahydro-3aH-pyrano[3,2-d]thiazole-6,7-diol] | 1.4 nM | 6 nM | 13.7 ×10⁻⁶ cm/s
CCNC1=N[C@@H]2C[C@H](O)[C@@H](CO)O[C@@H]2S1 [Example 2, (3aR,5R,6S,7aR)-2-(ethylamino)-5-(hydroxymethyl)-5,6,7,7a-tetrahydro-3aH-pyrano[3,2-d]thiazol-6-ol] | – | – | 3.8 ×10⁻⁶ cm/s
CCNC1=N[C@@H]2[C@@H](O)[C@H](O)[C@@H](C(F)F)O[C@@H]2S1 [Example 19, (3aR,5S,6S,7R,7aR)-5-(difluoromethyl)-2-(ethylamino)-5,6,7,7a-tetrahydro-3aH-pyrano[3,2-d]thiazole-6,7-diol] | 5.7 nM | 53 nM | 6 ×10⁻⁶ cm/s
CCNC1=N[C@@H]2[C@@H](O)[C@H](O)[C@@H](C)O[C@@H]2S1 [Example 1, (3aR,5R,6S,7R,7aR)-2-(ethylamino)-5-methyl-5,6,7,7a-tetrahydro-3aH-pyrano[3,2-d]thiazole-6,7-diol] | 70 nM | – | –
CCNC1=N[C@@H]2[C@@H](O)[C@H](O)[C@@H](CO)O[C@@H]2S1 [(3aR,5R,6S,7R,7aR)-2-(ethylamino)-5-(hydroxymethyl)-5,6,7,7a-tetrahydro-3aH-pyrano[3,2-d]thiazole-6,7-diol, reference compound] | – | – | < 1 ×10⁻⁶ cm/s
